Numbers after ± are expanded uncertainties.
Conditions: Liquid, Ebulliometric method (Recirculating still)

C1COCCN1 [tetrahydro-1,4-oxazine]
Conditions | vapor or sublimation pressure [kPa]
356.46 K | 22.57 ± 0.2
359.12 K | 24.96 ± 0.2
361.7 K | 27.47 ± 0.2
364.05 K | 30.02 ± 0.21
366.23 K | 32.49 ± 0.21
368.27 K | 34.95 ± 0.21
370.28 K | 37.52 ± 0.21
372.11 K | 40.01 ± 0.21
373.84 K | 42.47 ± 0.21
375.53 K | 45.01 ± 0.21
377.1 K | 47.47 ± 0.21
378.63 K | 49.95 ± 0.21
380.12 K | 52.51 ± 0.21
381.51 K | 54.94 ± 0.22
382.87 K | 57.53 ± 0.22
384.16 K | 59.98 ± 0.22
385.48 K | 62.51 ± 0.22
386.71 K | 65.04 ± 0.22
387.9 K | 67.54 ± 0.22
389.05 K | 69.99 ± 0.22
390.19 K | 72.56 ± 0.22
391.28 K | 75.03 ± 0.22
392.32 K | 77.49 ± 0.23
393.36 K | 80.02 ± 0.23
394.38 K | 82.52 ± 0.23
395.33 K | 85.07 ± 0.23
396.32 K | 87.48 ± 0.23
397.26 K | 90.03 ± 0.23
398.15 K | 92.46 ± 0.23
399.11 K | 95.07 ± 0.24
399.93 K | 97.49 ± 0.24
400.78 K | 100.01 ± 0.24
401.24 K | 101.32 ± 0.24

Source: the NIST ThermoML archive (doi:10.1016/j.fluid.2010.04.008)
